According to US12233043B1, “Method of transdermal delivery of cannabinoid compositions” (Florida A&M University, priority 2022, dated 2025):
Read-outs that look alike come from different tables or passages of the source.

Legend:
[1] = solution in propylene glycol, water and ethanol, Stinchcomb et al 2004, cited from earlier work
[2] = Pre-formulation solubility of CBD, THCV and CBG in solvents; format: physicochemical
Experimental: Pre-Formulation Studies: Solubility of CBD, THCV and CBG
The solubility of APIs including CBD, CBG and THCV was determined in various solvents including dimethyl sulfoxide (DMSO), N-Methyl-2-pyrrolidone (NMP), and PEG 400. Briefly, 100 mg of each API was dissolved in 0.5 ml of DMSO, NMP, PEG400 and vortexed until it dissolved completely. All the solutions were then visually observed for any undissolved particles. Further, all the solubility samples were centrifuged, and the supernatant were collected. Samples were then analyzed using HPLC for the amount of drug solubilized in each solvent.

[3] = test system: carrageenan-induced paw edema; test: Carrageenan-induced acute inflammatory (paw edema) model; format: in vivo, Sprague Dawley (SD) rats; conditions: as compared to control (no treatment)
Experimental: Carrageenan-Induced Acute Inflammatory Model
The anti-inflammatory effect of the gel formulations was assessed using carrageenan-induced paw edema model (Whiteley and Dalrymple 1998, Lee and Crosby 1999, Sammons, Raval et al. 2000, Cong, Khaziakhmetova et al. 2015) using Sprague Dawley (SD) rats. This model was deduced suitable for the evaluation of anti-inflammatory and anti-hyperalgesic drugs (Whiteley and Dalrymple 1998, Lee and Crosby 1999, Sammons, Raval et al. 2000, Cong, Khaziakhmetova et al. 2015). Edema was induced in male Sprague Dawley (SD) rats by sub-plantar injection of 50 μL of 0.1% λ-carrageenan (22049 SIGMA λ-Carrageenan plant-mucopolysaccharide, Sigma-Aldrich) gel in nuclease free water into the left hind paw of the animals. The inventors evaluated the intensity, development, and duration of the induced inflammation by measurements of rat paw volume using a digital plethysmometer (LE 7500, Panlab, Harvard Apparatus). Measurements were made prior to edema induction (base-line volume) and at 1, 2, 4, 6, 8, 12, and 24 hrs after sub-plantar carrageenan injection. The intensity of inflammation was assessed by calculating the percentage of increase in paw volume against the base-line measurements. Animals were divided into 4 groups of 4 rats each; group 1: control (no treatment); group 2: CBD gel (Gel A); group 3: CBG gel (Gel I); and group 4: THCV gel (Gel J). […] Therefore, placebo gels were not considered in the study.

[4] = In-vitro skin permeation study (IVPT), Franz diffusion cells; format: in vitro ADME, Human; conditions: for cumulative drug permeation: end of 72 hrs
Experimental: In-Vitro Skin Permeation Study
The in-vitro permeation and deposition studies were performed under occlusive conditions using jacketed Franz diffusion cells with a 0.636 cm2 permeation area and 5 mL receptor chamber volume. Human skin used was obtained from The New York Fire Fighter's skin bank and originated from the right and left posterior leg regions. Dermatomed, cryopressed split thickness skin with epidermis and dermis were delivered in plastic bags and stored at −80° C. until further use.
Skin was thawed in water for 45 minutes and was cut into small pieces and mounted on Franz cells. Receptor medium containing PBS with 25% (v/v) ethanol and 5% (v/v) Tween 80 was used for the IVPT study. 0.01% (w/v) sodium azide was added in the receiving media and sonicated for 20 mins to degasify it. To ensure the absence of bubbles in the receptor chamber, each cell was turned upside down to allow release of air though the sampling port. The cells were then left to equilibrate for about 10 mins before application of hydrogel samples. To begin the permeation experiment, 0.2 mL samples of each formulation was pipetted onto the donor compartment. The donor compartment of each cell was sealed with parafilm and perforated with a needle and the fastened to the receiving compartment using a clamp. Following the completion of the experimental setup, the Franz diffusion cells were blanketed to prevent photo-degradation of samples and the system kept at 32.3° C. with the use of its circulating water bath to maintain the skin surface temperature of 32° C. throughout the duration of the experiment. A 72 hr experimentation duration was employed with sampling times set at 24 hr increments. 1 mL samples were withdrawn from the receptor chamber via the sampling port and analyzed by HPLC, and the entire remaining receiving media in the receptor chamber was discarded and replaced with a fresh batch. The cumulative amount of drug permeated through the skin per unit area (Qp) was calculated from drug concentration in the receptor fluid and plotted as a function of time. The steady-state flux (J) was determined as the slope of the linear portion of the plot.

[5] = in DMSO, NMP, PEG 400 and lactic acid

Row | Compound | cumulative amount of CBD permeation ([1]; end of 48 hrs) | maximum flux ([1]; 48 hrs IVPT) | solubility [2, 5] | paw edema [3] | solubility [2] | cumulative drug permeated in the receiving media ([4]; 24 hrs, human skin, gel 10% w/w) | cumulative drug permeation ([4]; human skin, gel 10% w/w) | drug permeation ([4]; 24 hours post administration)
1 | C=C(C)[C@@H]1CCC(C)=C[C@H]1c1c(O)cc(CCCCC)cc1O [CBD, Cannabidiol, reference compound] | ~78.61 µg | ~1.47 μg/cm^2/hr | high solubility | significantly (p<0.0001) reduced | – | – | – | –
2 | CCCCCc1cc(O)c(C/C=C(\C)CCC=C(C)C)c(O)c1 [CBG, Cannabigerol] | – | – | – | significantly (p<0.0001) reduced | high solubility | at least 136 μg/cm^2 | at least 321 μg/cm^2 | –
3 | CCCc1cc(O)c2c(c1)OC(C)(C)[C@@H]1CCC(C)=C[C@@H]21 [THCV, Tetrahydrocannabivarin] | – | – | high solubility | significantly (p<0.0001) reduced | – | – | at least 2124 μg/cm^2 | at least 843 g/cm^2
